Tests used:
[1] = Monkey plasma pharmacokinetics, single oral dose; assay type: in vivo, cynomolgus monkeys (Macaca fascicularis); conditions: for AUC0–t / AUCinf / Cmax / Cmax/dose / t½: geometric mean (CV%); for tmax: median (min–max)
Experimental: Eight cynomolgus monkeys (Macaca fascicularis) were used for measuring plasma levels of MIV-711 and CTX-I after a single dose. The animals were healthy young males, approximately 2–4 years old and weighing 3–4 kg. Experiments were performed at Covance Ltd (Harrogate, UK). The monkeys were used over an extended period of time (up to a year) and several cathepsin K inhibitors were evaluated during this time. At least 1 week was allowed for washout in between experiments. This was not believed to affect the results with MIV-711, and vehicle controls were run on a regular basis when appropriate. Each animal received at least one dose of MIV-711 and one dose of vehicle with at least 1 week of washout in between treatments.
In single dose experiments, animals were dosed with vehicle or MIV-711 (3–30 µmol/kg) via oral gavage at a dose volume of 4 mL/kg between 7:30 and 9:00 a.m. Blood samples were collected at baseline, 30 min, 1, 2, 4, 8, 12, 24 and 48 h after dose from the femoral vein and transferred into lithium heparin anticoagulant tubes. The samples were centrifuged and the two aliquots of the resultant plasma were frozen at − 70 °C. All samples were processed and stored within 30 min of collection. The aliquots were used to determine the MIV-711 concentration and CTX-I levels, respectively. [drawing 1]
The quantification of MIV-711 in monkey plasma was performed by taking 10–50 µL of plasma and mixing with 3 volumes of acetonitrile (10 s, Vibrofix). The sample was centrifuged (10 min, 20,000×g, 7 °C) and 5 µL of the supernatant was injected onto the liquid chromatography with tandem mass spectrometric detection (LC–MS/MS) system. The lowest concentration of the standard curves and the lower limit of quantification (LLOQ) was 1 nmol/L of MIV-711. The human plasma samples were prepared by protein precipitation for sample extraction followed by LC–MS/MS. The lowest concentration of the standard curves and the LLOQ was 4 nmol/L of MIV-711 using 25 µL of plasma.

pKa = assay type: physicochemical
human cathepsin K = molecular target: T1, human cathepsin K (Homo sapiens, UniProt P43235); assay: Recombinant enzyme assay, human cathepsin K; assay type: biochemical
T1 construct: made in house; host or cells: E. coli
T1 sequence (P43235 115-329): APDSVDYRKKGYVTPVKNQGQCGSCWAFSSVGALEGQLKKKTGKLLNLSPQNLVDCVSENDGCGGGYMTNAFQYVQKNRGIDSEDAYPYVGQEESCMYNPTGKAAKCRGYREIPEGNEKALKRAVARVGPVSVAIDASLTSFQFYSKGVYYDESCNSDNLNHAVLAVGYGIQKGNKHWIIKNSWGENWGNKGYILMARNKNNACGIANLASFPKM
Source text: (§1) Recombinant cathepsin K enzymes from all species were expressed in E. coli, purified and activated. Human cathepsin F and cathepsin S were expressed in Baculovirus, purified and activated. Purified human cathepsins B and H (Athens Research Technology), cathepsin L (Calbiochem), and cathepsin V (R & D Systems) were purchased.
(§2) H-D-Ala_Leu-Lys-AMC was used as the substrate in assays of cathepsin K from non-rodent species (human, dog, rabbit and guinea pig), and Z-Leu-Arg-AMC was used as the substrate in assays of cathepsin K from rodent species (mouse and rat). […]
(§3) Assays were carried out in white polystyrene 96-well plates in a final volume of 100 µL. […] Plates were read in a Fluoroskan Ascent (Thermo Labsystems, Helsinki, Finland) in kinetic mode, with excitation and emission filters of 390 and 460 nm, respectively. Rates were determined by linear regression of the fluorescence/time data in Excel. Rates were fitted by non-linear regression to either the competitive inhibition equation, with the substrate concentration fixed at the value in the assay and the KM fixed to the value previously determined, or the IC50 equation using GraphPad Prism (GraphPad, version 6, San Diego, USA) to obtain Ki or IC50 values, respectively.

human cathepsin S = molecular target: T2, human cathepsin S (Homo sapiens, UniProt P25774); assay: Enzyme assay, human cathepsin S; assay type: biochemical; conditions: geometric mean
T2 construct: made in house
T2 sequence (P25774 115-331): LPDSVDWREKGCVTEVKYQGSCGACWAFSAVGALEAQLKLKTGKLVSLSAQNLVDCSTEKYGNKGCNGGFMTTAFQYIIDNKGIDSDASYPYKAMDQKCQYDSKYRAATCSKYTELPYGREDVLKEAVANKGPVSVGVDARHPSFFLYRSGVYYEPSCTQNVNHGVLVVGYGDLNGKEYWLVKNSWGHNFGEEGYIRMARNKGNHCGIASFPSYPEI
Source text: as §1, §2, §3

## C#C[C@@H]1CN(C(=O)[C@H](CC(C)C)NC(=O)c2ccc(-c3nc(N4CCN(C)CC4)sc3F)cc2)[C@@H]2C(=O)CO[C@H]12 [MIV-711]
[1]; 3 µmol/kg p.o. single dose
  AUC0–t: 0.400 (60) µmol/L × h
  AUCinf: 0.409 (62) µmol/L × h
  Cmax: 102 nM
  Cmax/dose: 0.034 (65)
  t½: 2.1 (16) h
  tmax: 2.0 (2.0–2.0) h
[1]; 10 µmol/kg p.o. single dose
  AUC0–t: 0.881 (52) µmol/L × h
  AUCinf: 0.932 (46) µmol/L × h
  Cmax: 164 nM
  Cmax/dose: 0.016 (41)
  t½: 3.1 (52) h
  tmax: 2.0 (0.50–4.0) h
[1]; 30 µmol/kg p.o. single dose
  AUC0–t: 6.21 (62) µmol/L × h
  AUCinf: 6.28 (62) µmol/L × h
  Cmax: 923 nM
  Cmax/dose: 0.031 (56)
  t½: 3.4 (30) h
  tmax: 2.0 (1.0–4.0) h
[1]; highest dose group (30 µmol/kg p.o.)
  Plasma concentration at 24 h post-dose: approximately 10 nmol/L
[1]; lowest dose group (3 µmol/kg p.o.), below LLOQ
  Plasma concentration at 24 h post-dose: < 1 nM
pKa
  pKa: 7.15
Human cathepsin K; cathepsin K vs cathepsins B, L, F, V, H, S
  Selectivity versus the other human cathepsins tested: more than 1300 fold
Human cathepsin K; human recombinant cathepsin K, geometric mean
  Ki: 0.00098 µM
Human cathepsin S
  Ki: 15.7 µM

Source: paper PMC5944028, “Nonclinical and clinical pharmacological characterization of the potent and selective cathepsin K inhibitor MIV-711” (Journal of Translational Medicine, 2018)
